Results as given in PubChem BioAssay (NCI).
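Protocol summary: plate cells (96-well), add compound at 5 concentrations, incubate 48 h, interpolate endpoints linearly. TGI marks complete inhibition of growth.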

Legend:
Test in all cases: NCI anticancer screen, dose series, 48 h
NCI-H23 lung = tested on: NCI-H23 lung
OVCAR-3 ovarian = tested on: OVCAR-3 ovarian
NCI/ADR-RES ovarian = tested on: NCI/ADR-RES ovarian
UACC-62 melanoma = tested on: UACC-62 melanoma
CAKI-1 renal = tested on: CAKI-1 renal
BT-549 breast = tested on: BT-549 breast
M14 melanoma = tested on: M14 melanoma
MDA-MB-231 breast = tested on: MDA-MB-231 breast
TK-10 renal = tested on: TK-10 renal
NCI-H522 lung = tested on: NCI-H522 lung
OVCAR-8 ovarian = tested on: OVCAR-8 ovarian
K-562 leukemia = tested on: K-562 leukemia
SW-620 colon = tested on: SW-620 colon
SF-295 CNS = tested on: SF-295 CNS
SK-MEL-5 melanoma = tested on: SK-MEL-5 melanoma
U251 CNS = tested on: U251 CNS
T-47D breast = tested on: T-47D breast
IGROV1 ovarian = tested on: IGROV1 ovarian
HOP-62 NSCLC = tested on: HOP-62 NSCLC
MALME-3M melanoma = tested on: MALME-3M melanoma
A498 renal = tested on: A498 renal
OVCAR-4 ovarian = tested on: OVCAR-4 ovarian
SF-268 CNS = tested on: SF-268 CNS
UO-31 renal = tested on: UO-31 renal
DU-145 prostate = tested on: DU-145 prostate
SK-OV-3 ovarian = tested on: SK-OV-3 ovarian
A549 NSCLC = tested on: A549 NSCLC
SR leukemia = tested on: SR leukemia
SN12C renal = tested on: SN12C renal
EKVX NSCLC = tested on: EKVX NSCLC
SNB-75 CNS = tested on: SNB-75 CNS
CCRF-CEM leukemia = tested on: CCRF-CEM leukemia
MDA-N = tested on: MDA-N
MCF7 breast = tested on: MCF7 breast
SK-MEL-28 melanoma = tested on: SK-MEL-28 melanoma
KM12 colon = tested on: KM12 colon
HOP-92 NSCLC = tested on: HOP-92 NSCLC
SF-539 CNS = tested on: SF-539 CNS
NCI-H460 lung = tested on: NCI-H460 lung
HS 578T breast = tested on: HS 578T breast
COLO 205 colon = tested on: COLO 205 colon
OVCAR-5 ovarian = tested on: OVCAR-5 ovarian
HT29 colon = tested on: HT29 colon
HCT-116 colon = tested on: HCT-116 colon
ACHN renal = tested on: ACHN renal
RPMI-8226 leukemia = tested on: RPMI-8226 leukemia
MDA-MB-435 = tested on: MDA-MB-435
786-0 renal = tested on: 786-0 renal
PC-3 prostate = tested on: PC-3 prostate
UACC-257 melanoma = tested on: UACC-257 melanoma
LOX IMVI melanoma = tested on: LOX IMVI melanoma
SK-MEL-2 melanoma = tested on: SK-MEL-2 melanoma
HL-60(TB) leukemia = tested on: HL-60(TB) leukemia
RXF 393 renal = tested on: RXF 393 renal
MOLT-4 leukemia = tested on: MOLT-4 leukemia
NCI-H226 lung = tested on: NCI-H226 lung
HCT-15 colon = tested on: HCT-15 colon
HCC-2998 colon = tested on: HCC-2998 colon
SNB-19 CNS = tested on: SNB-19 CNS

Measured: TGI

Cc1ncc([N+](=O)[O-])n1CCNC(=O)CCC(=O)NCCCn1ccnc1[N+](=O)[O-]
not listed: HCC-2998 colon | SNB-19 CNS
> 100 µM: all other assays above

CCC(=O)NC(Nc1ccccc1F)(C(F)(F)F)C(F)(F)F
not listed: HOP-62 NSCLC | MALME-3M melanoma | A498 renal | 786-0 renal | NCI-H226 lung
> 100 µM: all other assays above

CCOP(=O)(OCC)C(C)(CC)NC1=NC(C(F)(F)F)(C(F)(F)F)NC(=O)N1 (stereo not drawn)
not listed: NCI-H522 lung | A498 renal
> 100 µM: all other assays above
